In patent US8592576B2, “Unsymmetrical pyrrolobenzodiazepine-dimers for treatment of proliferative diseases” (Spirogen Sarl, priority 2008, dated 2013):

Columns and labels:
[1] = test system: K562 human chronic myeloid leukaemia cells; assay: K562 assay, in vitro cytotoxicity (MTT); assay type: cell-based; conditions: drug incubation 1 hour or 96 hours (not specified which), dose reducing final optical density to 50% of control
Protocol: (§1) Determination of In Vitro Cytotoxicity
K562 human chronic myeloid leukaemia cells were maintained in RPM1 1640 medium supplemented with 10% fetal calf serum and 2 mM glutamine at 37° C. in a humidified atmosphere containing 5% CO2 and were incubated with a specified dose of drug for 1 hour or 96 hours at 37° C. in the dark. The incubation was terminated by centrifugation (5 min, 300 g) and the cells were washed once with drug-free medium. Following the appropriate drug treatment, the cells were transferred to 96-well microtiter plates (10^4 cells per well, 8 wells per sample). Plates were then kept in the dark at 37° C. in a humidified atmosphere containing 5% CO2. The assay is based on the ability of viable cells to reduce a yellow soluble tetrazolium salt, 3-(4,5-dimethylthiazol-2-yl)-2,5-diphenyl-2H-tetrazolium bromide (MTT, Aldrich-Sigma), to an insoluble purple formazan precipitate. Following incubation of the plates for 4 days (to allow control cells to increase in number by approximately 10 fold), 20 μL of MTT solution (5 mg/mL in phosphate-buffered saline) was added to each well and the plates further incubated for 5 h. […] The optical density was then read at a wavelength of 550 nm on a Titertek Multiscan ELISA plate reader, and a dose-response curve was constructed. […]

[2] = test system: A2780 parental cell line; assay: A2780 assay, in vitro cytotoxicity (MTT); assay type: cell-based; conditions: Homo sapiens, A2780 cells, 72 hours incubation, absorbance 540 nm
Protocol: as §1
A2780 parental cell line was grown in Dulbecco's Modified Eagles' Media (DMEM) containing ˜10% Foetal Calf Serum (FCS) and ˜1% 200 mM L-Glutamine solution and grown in Corning Cellbind 75 cm^2 flasks.
190 μl cell suspension was added (at 1×10^4) to each well of columns 2 to 11 of a 96 well plate (Nunc 96F flat bottom TC plate). 190 μl of media was added to each well of columns 1 and 12. The media was Dulbecco's Modified Eagles' Media (DMEM) (which included ˜10% Foetal Calf Serum (FCS) and ˜1% 200 mM L-Glutamine solution).
Plates were incubated overnight at 37° C. before addition of drug if cells were adherent. 200 μM of the test compound solutions (in 100% DMSO) were serially diluted across a 96 well plate. Each resulting point was then further diluted 1/10 into sterile distilled water (SDW).
To the cell negative blanks and compound negative control wells, 10% DMSO was added at 5% v/v. Assay plates were incubated for the following durations at 37° C. in 5% CO2 in a humidified incubator for 72 hours. Following incubation, MTT solution to a final concentration of […] was added to each well. Plates were then incubated for a further 4 hours at 37° C. in 5% CO2 in a humidified incubator. […]
Plates were read at 540 nm absorbance using an Envision plate reader. Data was analysed using Microsoft Excel and GraphPad Prism and IC50 values obtained.

| SMILES | IC50 [1] | IC50 [2] |
| --- | --- | --- |
| COc1ccc(C2=CN3C(=O)c4cc(OC)c(OCCCCCOc5cc6c(cc5OC)C(=O)N5C=C(c7ccc(N)cc7)C[C@H]5C=N6)cc4N=C[C@@H]3C2)cc1 [Compound 13, (S)-2-(4-aminophenyl)-7-methoxy-8-(5-((S)-7-methoxy-2-(4-methoxyphenyl)-5-oxo-5,11a-dihydro-1H-pyrrolo[2,1-c][1,4]benzodiazepine-8-yloxy)pentyloxy)-1H-pyrrolo[2,1-c][1,4]benzodiazepine-5(11aH)-one] | 30 µM |  |
| COc1ccc(C2=CN3C(=O)c4cc(OC)c(OCCCOc5cc6c(cc5OC)C(=O)N5C=C(c7ccc(N)cc7)C[C@H]5C=N6)cc4N=C[C@@H]3C2)cc1 [Compound 11, (S)-2-(4-aminophenyl)-7-methoxy-8-(3-((S)-7-methoxy-2-(4-methoxyphenyl)-5-oxo-5,11a-dihydro-1H-pyrrolo[2,1-c][1,4]benzodiazepine-8-yloxy)propoxy)-1H-pyrrolo[2,1-c][1,4]benzodiazepine-5(11aH)-one] |  | 11.7 µM |
